According to ChEMBL document CHEMBL1201862, “PubChem BioAssay data set” (2004):
Activity calls are given as the source filed them. Cut-off read from the data, not from the text of the source, for most assays here: actives have a measured IC50 and inactives only a lower limit.

Tests used:
[1] = target: Glyceraldehyde-3-phosphate dehydrogenase (Homo sapiens, UniProt P04406)
[2] = target: T1, Tyrosine-protein phosphatase non-receptor type 7 (Homo sapiens, UniProt P35236); assay type: functional
T1 sequence (P35236 whole entry): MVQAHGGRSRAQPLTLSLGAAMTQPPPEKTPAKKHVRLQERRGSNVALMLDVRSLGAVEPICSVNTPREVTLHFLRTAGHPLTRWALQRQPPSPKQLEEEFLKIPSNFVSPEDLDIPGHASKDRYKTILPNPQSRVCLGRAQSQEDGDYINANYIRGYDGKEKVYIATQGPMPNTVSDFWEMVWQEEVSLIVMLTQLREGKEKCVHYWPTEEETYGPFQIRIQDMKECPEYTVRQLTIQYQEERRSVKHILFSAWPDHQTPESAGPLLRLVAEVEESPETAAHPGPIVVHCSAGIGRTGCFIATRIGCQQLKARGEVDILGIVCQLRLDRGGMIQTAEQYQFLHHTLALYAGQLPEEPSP

[3] = target: T2, Dual specificity protein phosphatase 6 (Rattus norvegicus, UniProt Q64346)
T2 sequence (Q64346 whole entry): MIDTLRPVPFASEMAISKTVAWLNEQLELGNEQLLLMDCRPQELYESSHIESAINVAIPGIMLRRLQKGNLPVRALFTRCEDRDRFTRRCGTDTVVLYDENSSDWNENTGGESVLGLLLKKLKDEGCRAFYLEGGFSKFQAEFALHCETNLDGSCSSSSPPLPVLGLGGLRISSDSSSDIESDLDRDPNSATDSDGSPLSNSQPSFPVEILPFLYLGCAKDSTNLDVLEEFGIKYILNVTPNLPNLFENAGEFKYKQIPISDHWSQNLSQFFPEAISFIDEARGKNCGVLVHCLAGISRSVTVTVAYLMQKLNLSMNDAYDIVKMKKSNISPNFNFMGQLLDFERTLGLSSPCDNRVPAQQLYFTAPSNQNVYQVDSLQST

[4] = target: T2, Dual specificity protein phosphatase 6; assay type: functional
[5] = target: Glucose-6-phosphate 1-dehydrogenase (Homo sapiens, UniProt P11413); assay: inhibition of Homo sapiens G6PD, dose series – biochemical, fluorescence, selectivity assay for P. falciparum G6PD inhibitor project, dose response (AID 504792); assay type: functional
Chain of Glucose-6-phosphate 1-dehydrogenase (P11413 whole entry): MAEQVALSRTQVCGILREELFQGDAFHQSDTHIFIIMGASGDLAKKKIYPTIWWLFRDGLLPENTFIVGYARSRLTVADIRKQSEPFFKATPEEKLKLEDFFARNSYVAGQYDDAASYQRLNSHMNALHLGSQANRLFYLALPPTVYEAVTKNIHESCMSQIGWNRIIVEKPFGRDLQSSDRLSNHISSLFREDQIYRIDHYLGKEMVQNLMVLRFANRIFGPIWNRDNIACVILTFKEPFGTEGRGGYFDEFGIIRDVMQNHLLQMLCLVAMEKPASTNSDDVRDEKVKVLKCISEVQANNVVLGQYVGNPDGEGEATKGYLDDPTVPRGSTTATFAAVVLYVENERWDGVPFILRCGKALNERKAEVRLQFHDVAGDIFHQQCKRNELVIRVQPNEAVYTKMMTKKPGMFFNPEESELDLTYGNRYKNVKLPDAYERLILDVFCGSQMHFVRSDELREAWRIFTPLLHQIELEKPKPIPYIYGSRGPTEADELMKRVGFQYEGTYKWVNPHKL

[6] = target: DNA dC->dU-editing enzyme APOBEC-3A (Homo sapiens, UniProt P31941); assay: A3A deaminase inhibition for selectivity – biochemical, dose response (AID 504722); assay type: functional
Chain of DNA dC->dU-editing enzyme APOBEC-3A (P31941 whole entry): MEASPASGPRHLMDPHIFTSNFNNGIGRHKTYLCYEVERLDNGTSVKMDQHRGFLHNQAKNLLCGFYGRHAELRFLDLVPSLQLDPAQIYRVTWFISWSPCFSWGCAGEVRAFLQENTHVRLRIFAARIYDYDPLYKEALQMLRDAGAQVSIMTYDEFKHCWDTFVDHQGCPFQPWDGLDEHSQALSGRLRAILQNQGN

[7] = target: Lysine-specific demethylase 4C (Homo sapiens, UniProt Q9H3R0); assay: inhibition of JMJD2C H3K9me3 demethylation – biochemical, DELFIA europium, cherry-picked samples, dose response (AID 488835); assay type: functional
Chain of Lysine-specific demethylase 4C (Q9H3R0 whole entry): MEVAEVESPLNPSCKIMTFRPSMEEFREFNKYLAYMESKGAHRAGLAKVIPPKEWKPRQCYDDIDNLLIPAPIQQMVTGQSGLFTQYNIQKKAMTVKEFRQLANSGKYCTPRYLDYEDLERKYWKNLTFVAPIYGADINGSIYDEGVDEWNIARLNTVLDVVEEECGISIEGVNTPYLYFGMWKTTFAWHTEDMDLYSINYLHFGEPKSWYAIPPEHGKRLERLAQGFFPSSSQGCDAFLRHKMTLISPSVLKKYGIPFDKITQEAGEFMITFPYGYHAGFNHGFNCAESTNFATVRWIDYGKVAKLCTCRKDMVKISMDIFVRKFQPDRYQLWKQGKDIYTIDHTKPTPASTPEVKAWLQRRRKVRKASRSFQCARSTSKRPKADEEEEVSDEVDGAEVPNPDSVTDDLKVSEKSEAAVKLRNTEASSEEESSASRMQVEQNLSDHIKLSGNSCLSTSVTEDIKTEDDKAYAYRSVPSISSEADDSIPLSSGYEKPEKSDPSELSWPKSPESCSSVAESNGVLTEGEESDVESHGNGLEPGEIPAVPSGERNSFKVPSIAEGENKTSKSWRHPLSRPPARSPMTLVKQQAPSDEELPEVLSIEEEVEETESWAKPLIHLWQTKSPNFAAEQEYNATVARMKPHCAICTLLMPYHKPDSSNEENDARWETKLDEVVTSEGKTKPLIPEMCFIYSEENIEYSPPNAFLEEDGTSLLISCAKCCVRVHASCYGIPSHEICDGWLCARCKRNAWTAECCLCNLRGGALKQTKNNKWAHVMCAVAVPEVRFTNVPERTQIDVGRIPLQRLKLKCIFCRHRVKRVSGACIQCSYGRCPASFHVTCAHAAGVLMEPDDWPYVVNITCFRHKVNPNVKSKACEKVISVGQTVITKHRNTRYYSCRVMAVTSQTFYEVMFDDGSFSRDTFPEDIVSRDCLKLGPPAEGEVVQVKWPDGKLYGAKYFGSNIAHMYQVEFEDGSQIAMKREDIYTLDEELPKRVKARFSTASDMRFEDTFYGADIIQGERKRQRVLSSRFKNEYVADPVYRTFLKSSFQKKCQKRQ

[8] = target: DNA dC->dU-editing enzyme APOBEC-3G (Homo sapiens, UniProt Q9HC16); assay: Dose Response confirmation of small molecule APOBEC3G DNA Deaminase Inhibitors via a fluorescence-based single-stranded DNA deaminase assay. [Related pubchem assays (depositor defined):AID493012, AID493028]; assay type: functional
Chain of DNA dC->dU-editing enzyme APOBEC-3G (Q9HC16 whole entry): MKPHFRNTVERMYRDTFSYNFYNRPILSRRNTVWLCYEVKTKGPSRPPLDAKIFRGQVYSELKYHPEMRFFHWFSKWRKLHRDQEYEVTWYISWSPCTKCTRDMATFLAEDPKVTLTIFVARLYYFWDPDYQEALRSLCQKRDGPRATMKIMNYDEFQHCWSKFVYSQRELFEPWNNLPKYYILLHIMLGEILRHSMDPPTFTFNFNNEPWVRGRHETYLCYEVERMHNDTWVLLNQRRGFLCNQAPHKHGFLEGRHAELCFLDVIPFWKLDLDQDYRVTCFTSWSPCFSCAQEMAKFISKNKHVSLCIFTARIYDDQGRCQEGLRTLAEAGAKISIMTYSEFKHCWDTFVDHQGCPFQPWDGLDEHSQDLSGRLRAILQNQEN

Tumor necrosis factor = Tumor necrosis factor (Homo sapiens, UniProt P01375); assay: analog potency on TNFa NF-kB signaling – cell-based, revised, SAR follow-up (AID 2337); assay type: functional
Chain of Tumor necrosis factor (P01375 whole entry): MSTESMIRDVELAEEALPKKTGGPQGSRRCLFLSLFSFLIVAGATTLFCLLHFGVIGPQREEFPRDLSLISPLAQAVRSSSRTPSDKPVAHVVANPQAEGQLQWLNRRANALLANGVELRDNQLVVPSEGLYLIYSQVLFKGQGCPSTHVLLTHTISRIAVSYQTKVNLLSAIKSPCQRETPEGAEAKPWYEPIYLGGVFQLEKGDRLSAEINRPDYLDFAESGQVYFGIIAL

HEK293 = assay: cells; conditions: Homo sapiens;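 note: cells exposed to compound for 14 hours overnight before viability readout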
[9] = target: T3, Nucleotide-binding oligomerization domain-containing protein 1 (Homo sapiens, UniProt Q9Y239); assay: blockers of NOD1 pathway activity – revised, SAR follow-up (AID 2333); assay type: functional
T3 sequence (Q9Y239 whole entry): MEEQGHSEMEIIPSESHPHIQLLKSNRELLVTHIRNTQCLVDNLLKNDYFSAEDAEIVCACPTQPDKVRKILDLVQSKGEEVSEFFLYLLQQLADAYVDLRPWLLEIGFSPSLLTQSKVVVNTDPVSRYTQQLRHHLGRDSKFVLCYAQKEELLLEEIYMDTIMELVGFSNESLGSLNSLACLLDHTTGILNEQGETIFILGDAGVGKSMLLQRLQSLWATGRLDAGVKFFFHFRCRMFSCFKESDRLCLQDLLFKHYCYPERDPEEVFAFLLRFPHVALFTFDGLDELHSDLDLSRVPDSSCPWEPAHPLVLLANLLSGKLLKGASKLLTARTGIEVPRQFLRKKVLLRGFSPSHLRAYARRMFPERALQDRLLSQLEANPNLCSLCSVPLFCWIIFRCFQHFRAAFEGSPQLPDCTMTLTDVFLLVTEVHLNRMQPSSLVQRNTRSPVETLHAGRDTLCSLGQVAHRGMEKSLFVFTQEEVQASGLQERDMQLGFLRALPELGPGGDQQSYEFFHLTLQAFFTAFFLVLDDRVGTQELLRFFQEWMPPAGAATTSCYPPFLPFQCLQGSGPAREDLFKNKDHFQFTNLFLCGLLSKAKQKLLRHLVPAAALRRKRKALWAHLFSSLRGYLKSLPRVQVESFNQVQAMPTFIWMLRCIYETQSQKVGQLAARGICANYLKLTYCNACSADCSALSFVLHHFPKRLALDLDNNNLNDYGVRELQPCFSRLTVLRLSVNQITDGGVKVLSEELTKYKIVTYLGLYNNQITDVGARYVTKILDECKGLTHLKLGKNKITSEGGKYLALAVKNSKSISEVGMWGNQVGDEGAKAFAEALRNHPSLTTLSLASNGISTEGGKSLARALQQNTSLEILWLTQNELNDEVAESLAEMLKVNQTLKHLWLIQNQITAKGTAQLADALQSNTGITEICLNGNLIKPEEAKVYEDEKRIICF

[10] = viability loss in THP-1 monocytes – THP-1 cells, cytotoxicity control for Vif-APOBEC3G degradation inhibitor project, dose response (AID 1117359); assay type: functional; conditions: THP-1
[11] = target: T4, Mannose-6-phosphate isomerase (Homo sapiens, UniProt P34949); assay: MPI inhibition at elevated mannose 6-phosphate – biochemical, fluorescence intensity, high mannose 6-phosphate, primary screen (AID 1220)
T4 sequence (P34949 whole entry): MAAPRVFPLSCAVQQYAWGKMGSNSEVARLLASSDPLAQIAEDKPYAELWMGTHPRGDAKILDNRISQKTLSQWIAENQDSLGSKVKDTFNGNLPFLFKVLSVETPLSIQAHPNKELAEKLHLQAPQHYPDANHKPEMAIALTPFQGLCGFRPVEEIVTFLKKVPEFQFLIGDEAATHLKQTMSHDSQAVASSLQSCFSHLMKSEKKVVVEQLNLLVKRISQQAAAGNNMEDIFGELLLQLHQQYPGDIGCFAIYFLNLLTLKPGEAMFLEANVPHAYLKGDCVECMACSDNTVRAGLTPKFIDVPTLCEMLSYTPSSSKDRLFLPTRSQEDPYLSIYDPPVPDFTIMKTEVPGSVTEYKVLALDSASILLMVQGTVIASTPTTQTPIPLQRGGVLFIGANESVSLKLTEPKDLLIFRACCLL

Chain of Glyceraldehyde-3-phosphate dehydrogenase (P04406 whole entry): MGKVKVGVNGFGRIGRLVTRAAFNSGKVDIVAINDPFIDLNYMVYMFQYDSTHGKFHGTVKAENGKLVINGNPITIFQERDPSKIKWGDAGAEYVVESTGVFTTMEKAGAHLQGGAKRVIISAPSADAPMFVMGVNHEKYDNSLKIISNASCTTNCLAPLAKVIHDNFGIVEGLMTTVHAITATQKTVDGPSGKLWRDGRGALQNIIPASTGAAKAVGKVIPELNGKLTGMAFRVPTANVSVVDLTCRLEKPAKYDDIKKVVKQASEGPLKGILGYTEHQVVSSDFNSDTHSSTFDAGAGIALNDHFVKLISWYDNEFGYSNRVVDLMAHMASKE

In the case of `O=C(Cc1cccs1)Nc1ccon1`, the IC50 [1] is reported as 27.4 µM (active), the IC50 [2] is reported as > 100 µM (not active) and the IC50 [3] is reported as > 100 µM (inactive). The IC50 [4] was > 100 µM (inactive).

With `O=S(=O)(Nc1ccccc1F)c1cccc(NC(=S)NCCN2CCOCC2)c1` the IC50 [5] was > 80 µM (inactive), the IC50 [6] was > 100 µM (inactive) and the AC50 [7] was 8.95 µM (active). The IC50 [8] was 7.38 µM (active).

With `COC(=O)CC1=NN(c2nc3ccccc3s2)C(=O)/C1=C(/C)Nc1ccc(Cl)cc1` the IC50 (Tumor necrosis factor) was 0.0369 µM (active), the IC50 (HEK293) was > 20 µM (inactive) and the IC50 [9] was < 0.0391 µM (active).

For `Oc1cccc(/C=N/NC(=S)NCCN2CCOCC2)c1O`, the CC50 [10] was 17.9 µM (active), the AC50 [7] was 4.02 µM (active) and the IC50 [11] was 23.6 µM (active).
